Reference: patent publication US20240415914A1, “Water Dispersible Cannabinoid Compositions” (priority 2021, published 2024)
Like-named read-outs stand apart in the source and are kept apart here.

Tests used:
[1] = assay type: physicochemical; conditions: stored at room temperature (21-25° C.)
Protocol: At each time period, 0.05 g of powder was dissolved in 10 ml-15 of ethanol, diluted to fall within the analytical range, and injected into the LCMSMS for analysis.

[2] = Stability of cannabinoid and Vitamin E components of Beverage 2 (AB Red) stored at 8° C. and 21-25° C., LCMSMS over 570 days
Protocol: The LCMSMS was calibrated for 0-50 ng/ml cannabinoids with the same resin material used in the preparation of the concentrates. At each time period, 100 μml of beverage was diluted with 10 ml of methanol and injected into the LCMSMS for analysis.

C=C(C)[C@@H]1CCC(C)=C[C@H]1c1c(O)cc(CCC)cc1O [CBDV, cannabidivarin]
0.195 µg/mL: Stability of Cannabinoids in AB Red ([2]; 8° C., 11 days) | Stability of Cannabinoids in AB Red ([2]; 8° C., 16 days) | Stability of Cannabinoids in AB Red ([2]; 8° C., 17 days) | Stability of Cannabinoids in AB Red ([2]; 8° C., 18 days) | Stability of Cannabinoids in AB Red ([2]; 8° C., 270 days) | Stability of Cannabinoids in AB Red ([2]; 8° C., 450 days)
0.19 µg/mL: Stability of Cannabinoids in AB Red ([2]; 21-25° C., 5 days) | Stability of Cannabinoids in AB Red ([2]; 21-25° C., 16 days) | Stability of Cannabinoids in AB Red ([2]; 21-25° C., 19 days) | Stability of Cannabinoids in AB Red ([2]; 21-25° C., 23 days) | Stability of Cannabinoids in AB Red ([2]; 21-25° C., 24 days) | Stability of Cannabinoids in AB Red ([2]; 21-25° C., 25 days) | Stability of Cannabinoids in AB Red ([2]; 21-25° C., 26 days) | Stability of Cannabinoids in AB Red ([2]; 21-25° C., 29 days) | Stability of Cannabinoids in AB Red ([2]; 21-25° C., 90 days) | Stability of Cannabinoids in AB Red ([2]; 21-25° C., 120 days) | Stability of Cannabinoids in AB Red ([2]; 21-25° C., 210 days) | Stability of Cannabinoids in AB Red ([2]; 21-25° C., 300 days) | Stability of Cannabinoids in AB Red ([2]; 21-25° C., 330 days) | Stability of Cannabinoids in AB Red ([2]; 21-25° C., 390 days) | Stability of Cannabinoids in AB Red ([2]; 21-25° C., 420 days) | Stability of Cannabinoids in AB Red ([2]; 21-25° C., 450 days) | Stability of Cannabinoids in AB Red ([2]; 21-25° C., 480 days) | Stability of Cannabinoids in AB Red ([2]; 21-25° C., 510 days) | Stability of Cannabinoids in AB Red ([2]; 21-25° C., 540 days)
0.194 µg/mL: Stability of Cannabinoids in AB Red ([2]; 8° C., 1 days) | Stability of Cannabinoids in AB Red ([2]; 8° C., 10 days) | Stability of Cannabinoids in AB Red ([2]; 8° C., 15 days) | Stability of Cannabinoids in AB Red ([2]; 8° C., 23 days) | Stability of Cannabinoids in AB Red ([2]; 8° C., 390 days)
0.048 mg/g powder: Stability in Powder Concentrate (content by LCMSMS) ([1]; day 3) | Stability in Powder Concentrate (content by LCMSMS) ([1]; day 19) | Stability in Powder Concentrate (content by LCMSMS) ([1]; day 570)
0.198 µg/mL: Stability of Cannabinoids in AB Red ([2]; 8° C., 5 days) | Stability of Cannabinoids in AB Red ([2]; 8° C., 8 days) | Stability of Cannabinoids in AB Red ([2]; 8° C., 12 days) | Stability of Cannabinoids in AB Red ([2]; 8° C., 150 days)
0.052 mg/g powder: Stability in Powder Concentrate (content by LCMSMS) ([1]; day 25) | Stability in Powder Concentrate (content by LCMSMS) ([1]; day 240) | Stability in Powder Concentrate (content by LCMSMS) ([1]; day 330) | Stability in Powder Concentrate (content by LCMSMS) ([1]; day 540)
0.184 µg/mL: Stability of Cannabinoids in AB Red ([2]; 8° C., 510 days)
0.192 µg/mL: Stability of Cannabinoids in AB Red ([2]; 8° C., 180 days) | Stability of Cannabinoids in AB Red ([2]; 8° C., 240 days)
0.18 µg/mL: Stability of Cannabinoids in AB Red ([2]; 21-25° C., 570 days)
0.191 µg/mL: Stability of Cannabinoids in AB Red ([2]; 8° C., 330 days)
0.199 µg/mL: Stability of Cannabinoids in AB Red ([2]; 8° C., 3 days) | Stability of Cannabinoids in AB Red ([2]; 8° C., 19 days) | Stability of Cannabinoids in AB Red ([2]; 8° C., 25 days) | Stability of Cannabinoids in AB Red ([2]; 8° C., 26 days) | Stability of Cannabinoids in AB Red ([2]; 8° C., 60 days)
0.197 µg/mL: Stability of Cannabinoids in AB Red ([2]; 8° C., 2 days) | Stability of Cannabinoids in AB Red ([2]; 8° C., 24 days) | Stability of Cannabinoids in AB Red ([2]; 8° C., 29 days)
0.183 µg/mL: Stability of Cannabinoids in AB Red ([2]; 8° C., 570 days)
0.185 µg/mL: Stability of Cannabinoids in AB Red ([2]; 8° C., 540 days)
0.196 µg/mL: Stability of Cannabinoids in AB Red ([2]; 8° C., 90 days)
0.193 µg/mL: Stability of Cannabinoids in AB Red ([2]; 8° C., 120 days) | Stability of Cannabinoids in AB Red ([2]; 8° C., 210 days) | Stability of Cannabinoids in AB Red ([2]; 8° C., 300 days) | Stability of Cannabinoids in AB Red ([2]; 8° C., 420 days)
0.051 mg/g powder: Stability in Powder Concentrate (content by LCMSMS) ([1]; day 1) | Stability in Powder Concentrate (content by LCMSMS) ([1]; day 2) | Stability in Powder Concentrate (content by LCMSMS) ([1]; day 8) | Stability in Powder Concentrate (content by LCMSMS) ([1]; day 11) | Stability in Powder Concentrate (content by LCMSMS) ([1]; day 12) | Stability in Powder Concentrate (content by LCMSMS) ([1]; day 17) | Stability in Powder Concentrate (content by LCMSMS) ([1]; day 18) | Stability in Powder Concentrate (content by LCMSMS) ([1]; day 24) | Stability in Powder Concentrate (content by LCMSMS) ([1]; day 30) | Stability in Powder Concentrate (content by LCMSMS) ([1]; day 150) | Stability in Powder Concentrate (content by LCMSMS) ([1]; day 270) | Stability in Powder Concentrate (content by LCMSMS) ([1]; day 420) | Stability in Powder Concentrate (content by LCMSMS) ([1]; day 480)
0.200 µg/mL: Stability of Cannabinoids in AB Red ([2]; 8° C., 0 days) | Stability of Cannabinoids in AB Red ([2]; 8° C., 22 days) | Stability of Cannabinoids in AB Red ([2]; 8° C., 30 days)
0.049 mg/g powder: Stability in Powder Concentrate (content by LCMSMS) ([1]; day 9) | Stability in Powder Concentrate (content by LCMSMS) ([1]; day 16) | Stability in Powder Concentrate (content by LCMSMS) ([1]; day 22) | Stability in Powder Concentrate (content by LCMSMS) ([1]; day 29) | Stability in Powder Concentrate (content by LCMSMS) ([1]; day 210) | Stability in Powder Concentrate (content by LCMSMS) ([1]; day 300) | Stability in Powder Concentrate (content by LCMSMS) ([1]; day 390) | Stability in Powder Concentrate (content by LCMSMS) ([1]; day 450) | Stability in Powder Concentrate (content by LCMSMS) ([1]; day 510)
0.190 µg/mL: Stability of Cannabinoids in AB Red ([2]; 8° C., 480 days)
0.050 mg/g powder: Stability in Powder Concentrate (content by LCMSMS) ([1]; day 0) | Stability in Powder Concentrate (content by LCMSMS) ([1]; day 5) | Stability in Powder Concentrate (content by LCMSMS) ([1]; day 10) | Stability in Powder Concentrate (content by LCMSMS) ([1]; day 15) | Stability in Powder Concentrate (content by LCMSMS) ([1]; day 23) | Stability in Powder Concentrate (content by LCMSMS) ([1]; day 26) | Stability in Powder Concentrate (content by LCMSMS) ([1]; day 60) | Stability in Powder Concentrate (content by LCMSMS) ([1]; day 90) | Stability in Powder Concentrate (content by LCMSMS) ([1]; day 120) | Stability in Powder Concentrate (content by LCMSMS) ([1]; day 180) | Stability in Powder Concentrate (content by LCMSMS) ([1]; day 360)
0.20 µg/mL: Stability of Cannabinoids in AB Red ([2]; 21-25° C., 0 days) | Stability of Cannabinoids in AB Red ([2]; 21-25° C., 1 days) | Stability of Cannabinoids in AB Red ([2]; 21-25° C., 2 days) | Stability of Cannabinoids in AB Red ([2]; 21-25° C., 3 days) | Stability of Cannabinoids in AB Red ([2]; 21-25° C., 8 days) | Stability of Cannabinoids in AB Red ([2]; 21-25° C., 9 days) | Stability of Cannabinoids in AB Red ([2]; 21-25° C., 10 days) | Stability of Cannabinoids in AB Red ([2]; 21-25° C., 11 days) | Stability of Cannabinoids in AB Red ([2]; 21-25° C., 12 days) | Stability of Cannabinoids in AB Red ([2]; 21-25° C., 15 days) | Stability of Cannabinoids in AB Red ([2]; 21-25° C., 17 days) | Stability of Cannabinoids in AB Red ([2]; 21-25° C., 18 days) | Stability of Cannabinoids in AB Red ([2]; 21-25° C., 22 days) | Stability of Cannabinoids in AB Red ([2]; 21-25° C., 30 days) | Stability of Cannabinoids in AB Red ([2]; 21-25° C., 60 days) | Stability of Cannabinoids in AB Red ([2]; 21-25° C., 150 days) | Stability of Cannabinoids in AB Red ([2]; 21-25° C., 180 days) | Stability of Cannabinoids in AB Red ([2]; 21-25° C., 240 days) | Stability of Cannabinoids in AB Red ([2]; 21-25° C., 270 days)
0.201 µg/mL: Stability of Cannabinoids in AB Red ([2]; 8° C., 9 days)
